Where two headings read alike, the source gives them in different places.
Key:
[1] = tested on: eIF2α phosphorylation (eIF2•GTP•Met-tRNAi ternary complex; HRI activation); experiment: surrogate dual luciferase eIF2α phosphorylation (ternary complex) assay; format: cell-based, human; settings: Homo sapiens; surrogate eIF2α phosphorylation assay, Table 3; read-out: Emax (F/R)
Outline: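 Cell-based dual luciferase reporter: firefly luciferase behind the ATF-4 5′UTR (uORFs) and renilla luciferase behind a uORF-free 5′UTR, read with a dual glow kit. Activity given as firefly/renilla ratio normalised to DMSO wells set at 1, with a rising ratio reflecting reduced ternary complex (e.g., HRI activation).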

[2] = tested on: CRL-2813 human melanoma cancer cells; experiment: cell proliferation (SRB) assay, CRL-2813; format: cell-based; settings: Homo sapiens, CRL2813
Outline: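 Cells exposed 5 days to 0.5–20 μM compound, then TCA-fixed and stained with sulforhodamine B. Growth as 100×[(T−T0)/(C−T0)] from absorbance of treated, control and time-zero cultures; cell death as 100×[(T−T0)/T0] where T is below T0.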

NIH/3T3 fibroblast cells = experiment: cell proliferation (SRB) assay, NIH/3T3; format: cell-based; settings: Mus musculus, NIH3T3; NIH/3T3, Table 8; Mean IC50±S.E.M.; read-out: IC50 of compounds
Description: (§1) Cells were seeded in 96-well plates and maintained for 5 days in the presence of 0.5 to 20 μM of individual compound, and cell proliferation was measured by the sulforhodamine B (SRB) assay as described previously (see, for example, Palakurthi, S. S. et al. Cancer Research 2000, 60(11), 2919-2925). Briefly, at the end of a 5-day treatment, cells were fixed in 10% cold trichloroacetic acid. Cell number was estimated by measuring the remaining bound dye of sulforhodamine B after washing. The percentage of growth was calculated by using the equation: 100×[(T−T0)/(C−T0)], where T and C represent the absorbance in treated and control cultures at Day 5, and T0 at time zero, respectively. If T is less than T0, cell death has occurred and can be calculated from 100×[(T−T0)/T0].
The experiments were conducted in triplicate, and each experiment was independently performed three times. IC50=effective dose of drug that inhibit cell proliferation by 50%. Data are shown as Mean±S.E.M.
Compounds I-6p, I-17, I-18 and I-20 were tested in NIH/3T3 fibroblast and CRL-2813 melanoma cancer cells in cell proliferation assay. The experiment was conducted in triplicate and each experiment was independently performed three times. Data are shown as Mean IC50±S.E.M.

[3] = tested on: CRL-2813 human melanoma cancer cells transfected with HRI-targeting or non-targeting siRNA; experiment: cell proliferation (SRB) assay after HRI knockdown; format: cell-based; settings: CRL-2813 cells, FIG. 10
Description: as §1
Cell proliferation is a meaningful read-out for determining the specificity of a compound as it captures both on-target and off-target effects of the compound under study. […] If these compounds specifically activate HRI and this activity is required for the inhibition of cell proliferation, then reducing the expression of HRI should blunt their effect on cell proliferation. For this purpose, expression of HRI was knocked down in CRL-2813 human melanoma (about 70% knockdown efficiency) and MCF-7 human breast cancer cells (about 90% knockdown efficiency). These two cell lines were chosen because the HRI knockdown efficiency is lower in CRL-2813 than in MCF-7 cells providing a sort of dose-response data that correlates knockdown efficiency with the resistance of cells to inhibition of cell proliferation. […] Referring to FIG. 5A, CRL-2813 human melanoma cancer cells, and (FIG. 5B) MCF-7 human breast cancer cells were transfected with HRI targeted or non-targeted siRNA, treated with the indicated concentrations of I-6p and cell proliferation was measured by SRB assay. Calculated IC50 for all four compounds tested in CRL-2813 human melanoma cancer cells and MCF-7 human breast cancer cells transfected with non-target siRNA control (NTC) or HRI is shown in FIG. 5C and FIG. 5D, respectively. The experiment was conducted in triplicate and each experiment was independently performed three times. Data are shown as Mean±S.E.M. *NTC=non-target siRNA control.
Referring to FIG. 8, CRL-2813 human melanoma cancer cells were transfected with HRI targeted or non-targeted siRNA, treated with the indicated concentrations of (A) I-14, (B) I-15, (C) III-4 and (D) III-5 and cell proliferation was measured by SRB assay. Calculated IC50 for all four compounds tested in CRL-2813 human melanoma cancer cells transfected with non-target siRNA control (NTC) or HRI is shown in (E). The experiment was conducted in triplicate and each experiment was independently performed three times. Data are shown as Mean±S.E.M. *NTC=non-target siRNA control, IC50=effective dose of drug that inhibit cell proliferation by 50%.
In general, if the affinity of compounds for their molecular target is increased this should result in higher specificity of the compounds in the cell proliferation assay. […] These five compounds, two with average and three with high potency, were tested in cell proliferation assay using CRL-2813 cells transfected with non-targeted siRNA or HRI-targeted siRNA as described above.

Work on `O=C(Nc1cccc(C(F)(F)F)c1)NC1CCC(Oc2cccc(C(F)(F)F)c2)CC1` (centres unmarked) [Compound I-20, 1-(4-(3-(Trifluoromethyl)phenoxy)cyclohexyl)-3-(3-(trifluoromethyl)phenyl)urea] yielded a maximal fold induction [1] of 26, an IC50 ([2]; CRL-2813, Table 8, Mean IC50±S.E.M., read-out: IC50 of compounds) of 1.3 ± 0.1 µM and an IC50 ([2]; cell proliferation assay, Table 3, cell line not named, values equal CRL-2813 values of Table 8, read-out: IC50) of 1.3 ± 0.1 µM. For the same compound, the IC50 (NIH/3T3 fibroblast cells) was 3.3 ± 0.2 µM and the “fold higher IC50 values in cells transfected with HRI-targeting siRNA vs. non-targeting siRNA” value [3] was roughly 5 fold.
